Test results from article PMC8262977, “A Dual-Specificity Inhibitor Targets Polyphosphate Kinase 1 and 2 Enzymes To Attenuate Virulence of Pseudomonas aeruginosa” (mBio, 2021).

Tests used:
P. aeruginosa PA14 [1] = assay: Swimming motility assay; assay type: cell-based, Pseudomonas aeruginosa
Procedure: Swimming motility plates consisted of 0.3% (wt/vol) Bacto agar (Becton Dickinson) and 2.5% (wt/vol) LB (Miller; Bioshop). Where indicated, 100 μM compound or an equivalent volume of DMSO was added to the agar prior to pouring. Plates were stab inoculated with a pipette tip dipped in overnight LB culture. Plates were incubated in sealed Tupperware at 30°C for 18 h, and swimming diameter was imaged and measured electronically.

P. aeruginosa PA14 [2] = assay: Bacterial growth kinetics (OD600); assay type: cell-based, Pseudomonas aeruginosa
Text: FIG 3 Gallein phenocopies ppk deletion to attenuate P. aeruginosa swimming motility. (A) Representative image of swimming motility. (B) Quantification of the effects of gallein treatment and ppk gene deletion on swimming motility. (C) PA14 growth kinetics in the presence and absence of gallein in lysogeny broth (equivalent in composition to swim plates, minus the agar). ns, P > 0.05; *, P < 0.05; **, P < 0.01; ***, P < 0.001 (two-way ANOVA, Tukey’s multiple-comparison test, n = 3). All data points are the average from triplicates; error bars are ±standard deviation.
Supplementary file : FIG S4 Growth curves of P. aeruginosa WT and ΔpolyP in M63 biofilm medium (A) and liquid killing C. elegans assay medium (B). Gallein, or an equivalent volume of DMSO, was added to a 100 μM final concentration. OD600 monitored in triplicate cultures grown in 96-well plates at 37°C following colony inoculation. Error bars ± standard deviation. Download FIG S4, TIF file, 2.5 MB.

human protein kinases = assay: Counterscreen against human protein kinases, [33P]ATP filter-binding assay; assay type: biochemical; details: 10 μM gallein, array of divergent human kinases
Procedure: Toxicity is always a major concern with kinase inhibitors, even though the absence of PPK homologues in mammals makes these enzymes particularly attractive therapeutic targets ([1], [11]). Cytotoxicity of the inhibitors was therefore assessed in cultured human embryonic kidney (HEK) […] cells via standard trypan blue viability assays ([36]). While the initial hit RT1 reduced cell viability by ∼60%, gallein was noncytotoxic at concentrations up to 100 μM (Fig. 6A). Gallein was also counterscreened against an array of divergent human kinases available at the International Centre for Kinase Profiling (University of Dundee), as described previously ([37]).
FIG 6 Gallein avoids off-target toxicity. (A) HEK cell cytotoxicity assay. Viability determined via trypan blue staining following 48 h of incubation with compounds. (B) Counterscreen for inhibition of human protein kinases by 10 μM gallein via radioactive ([^33P]ATP) filter-binding assay performed by the University of Dundee MRC PPU ([26]). (A) ns, P > 0.05; *, P < 0.05 (one-way ANOVA, Tukey’s multiple-comparison test, n = 3).

## O=C1OC2(c3ccccc31)c1ccc(O)c(O)c1Oc1c2ccc(O)c1O [RT4 (gallein), gallein]
P. aeruginosa PA14 [1]; WT, 100 μM in agar
  flagellum-based swimming motility: faithfully reproduced in WT P. aeruginosa the defect in flagellum-based swimming motility observed in the ΔpolyP strain
P. aeruginosa PA14 [1]; WT: DMSO control vs 100 µM gallein
  swimming motility, Mean Diff.: 2
P. aeruginosa PA14 [1]; Δppk1, 2a, 2b, 2c: DMSO control vs 100 µM gallein
  swimming motility, Mean Diff.: -0.1
P. aeruginosa PA14 [1]; Δppk1: DMSO control vs 100 µM gallein
  swimming motility, Mean Diff.: 1.05
P. aeruginosa PA14 [1]; Δppk2a, 2b, 2c: DMSO control vs 100 µM gallein
  swimming motility, Mean Diff.: 0.65
P. aeruginosa PA14 [2]; LK conditions, 100 μM
  growth kinetics: near-WT growth kinetics
P. aeruginosa PA14 [2]; biofilm assay conditions (M63 medium), 100 μM
  planktonic growth rate: did not affect the planktonic growth rate
P. aeruginosa PA14 [2]; lysogeny broth
  bacterial growth kinetics: did not affect bacterial growth kinetics
Human protein kinases
  loss of activity of human kinases: ≤ 25%
